pIC50: −log10 of the molar value. Calls of active or inactive are those of the source. No cut-off for these calls is given here.
Columns and labels:
[1] = Cytotoxicity against mouse EAT cells assessed as cell death at 50 uM after 16 hrs by trypan blue dye exclusion assay relative to control; format: functional
EAT = assay: Cytotoxicity against mouse EAT cells assessed as decrease in cell viability at 50 uM by trypan blue dye exclusion assay; format: functional, cell-based; conditions: TDE = time-dependent effect
[2] = Induction of apoptosis in mouse EAT cells assessed as early apoptotic cells with membrane blebbing and condensed nuclei at 50 uM after 16 hrs by acridine orange/ethidium bromide staining-based fluorescence microscopic method relative to control; format: functional
MDA-MB-231 [3] = assay: Cytotoxicity against human MDA-MB-231 cells assessed as decrease in cell viability after 16 hrs by MTT assay; format: functional, cell-based; conditions: MDA-MB-231, 16 h
MDA-MB-231 [4] = assay: Cytotoxicity against human MDA-MB-231 cells assessed as decrease in cell viability at 2 to 200 uM after 16 hrs by MTT assay; format: functional, cell-based

SMILES | Activity [1] [%] | Activity (EAT) | Activity [2] [%] | pIC50 (MDA-MB-231 [3]) | Activity (MDA-MB-231 [4])
COc1ccc(C2=NOC(CN3CCN(c4nsc5ccccc45)CC3)C2)cc1OCc1ccccc1 (stereo unspecified) | 44.6 | Tde | 50 | 4.02 | –
COc1ccc(C2=NOC(CN3CCN(c4nsc5ccccc45)CC3)C2)cc1OC (stereo unspecified) | – | Tde | – | – | Active
c1ccc(C2=NOC(CN3CCN(c4nsc5ccccc45)CC3)C2)cc1 (stereo unspecified) | 50 | Tde | – | – | inactive
c1ccc(COc2ccc(C3=NOC(CN4CCN(c5nsc6ccccc56)CC4)C3)cc2)cc1 (stereo unspecified) | 45.6 | Tde | 59 | – | Active
COc1cc(C2=NOC(CN3CCN(c4nsc5ccccc45)CC3)C2)ccc1OCc1ccccc1 (stereo unspecified) | 53 | Tde | 67.3 | 4.52 | –
Clc1ccc(C2=NOC(CN3CCN(c4nsc5ccccc45)CC3)C2)cc1 (stereo unspecified) | – | Tde | 61.3 | 4.12 | –
COc1ccc(C2=NOC(CN3CCN(c4nsc5ccccc45)CC3)C2)cc1 (stereo unspecified) | – | Tde | – | – | Active
COc1cc(C2=NOC(CN3CCN(c4nsc5ccccc45)CC3)C2)cc(OC)c1OC (stereo unspecified) | – | Tde | – | – | inactive
Fc1ccc(C2=NOC(CN3CCN(c4nsc5ccccc45)CC3)C2)cc1 (stereo unspecified) | – | Tde | – | – | inactive

From ChEMBL document CHEMBL4002560, “Synthesis and biological evaluation of novel isoxazolines linked via piperazine to 2- benzoisothiazoles as potent apoptotic agents” (Eur J Med Chem, 2017)
